Results taken from patent US5098933A, “Pharmaceutically useful Michael addition products of unsaturated aldehydes and ketones and ascorbic acid” (Theracel Corporation, priority 1990, dated 1992).
Like-named read-outs stand apart in the source and are kept apart here.

Tests used:
[1] = system: T- and B- lymphocyte isolated from mouse spleens; experiment: Lymphocyte Blastogenesis Assay; type: in vivo; settings: for RPMI CONTROL: no mitogen (Table 9); for activation at 25 mg/kg / activation at 50 mg/kg / activation at 100 mg/kg / activation at 200 mg/kg: Mus musculus, Lymphocyte
Source text: This assay measures the ability of the compound under test to affect DNA synthesis and mitosis of T- and B- lymphocyte isolated from mouse spleens.
Mitogens are substances which stimulate DNA synthesis and mitosis. The mitogens used in these studies were phytohemaglutinin (PHA) which is isolated from the red kidney bean and concanavalin-A (Con-A) which is isolated form the jack bean. Con-A binds to specific receptors (glycoproteins) containing mannosyl or glycosyl moieties and stimulates all murine T-cells to synthesize DNA, divide, and release lymphokines. Con-A in a soluble form allows distinction between T- and B-cells in the mouse, because although both T- and B-cells can bind 106 molecules of Con-A per cell, only T-cells are stimulated when this lectin is presented in a soluble form. PHA stimulates only subpopulations, T-2 cells, of T-cells in the mouse. Also, Con-A stimulates the production of cytokines such as Interleukin-2 (IL-2). In humans, both T- and B-cells are probably stimulated. The activation of B-cells by PHA may be indirect and mediated by the release of soluble mediators from PHA-activated T-cells.
The lymphocyte blastogenesis test is a method to assess the ability of immunocompetent T- or B-cells to respond to a polyclonal mitogen (i.e. PHA or Con-A) or a specific antigen. It may be performed on lymphocytes obtained from mice treated with immunostimulators in vivo or the entire assay can be performed in vitro. The assay as described below uses minimal doses of polyclonal mitogens to induce blastogenesis (proliferation measure by DNA synthesis), in order to be able to assess the phenomena of amplification.
1. Sacrifice two mice/experimental group by cervical dislocation.
14. […]
15. Include in the experiment a control plate which contains the same cells group as above, but receive a 0.1 ml of media instead of mitogen.
18. After 48 hours all wells receive 0.025 mls of a 0.4 microcurie/ml solution of C-14 methyl thymidine and incubate at 37 C, 5% CO-2 for 18 hours.

[2] = system: plaque forming cells, antibody specific to sheep red blood cells; experiment: Jerne Hemolytic Plaque Assay; type: in vivo, mice
Method: This assay measures the IgM or IgG isotypes of specific antibody produced by antigen used to immunize the mice. […] The direct assay detects IgM and the indirect assay detects IgG-specific antibody.
Washed spleen cells are added to an agarose (FMC, Rockland, Me.) preparation containing sheep red blood cells (SRBC) and guinea pig complement. A drop of this mixture is transferred to a small petri dish; a cover slip is then placed over the drop to flatten it. The agarose prep is allowed to solidify. Then, the dishes are placed in a small humidified changer inside a CO-2 incubator overnight.
Small pinpoint cleared areas (plaques) will be observed under the cover slip. The cleared areas are caused by antibody, specific to the SRBC's being released by stimulated spleen cells and in conjunction with the complement, lyse surrounding SRBC's. These plaque forming cells (PFC's) are counted, and calculations are performed to obtain PFC's per […] spleen cells.
1. Spleens are harvested from mice according to a standard procedure and adjusted to a final concentration of 20% in […].
14. Count and record the number of hemolytic plaques per plate. Average plaque counts between the duplicate sets. Multiply the average number of plaques per group by 2.5 to obtain the number of plaque forming cells per million spleen cells.

Compound: CC(=O)CCC1(O)C(=O)OC2C(O)COC21O (stereo not drawn) [KBBL, 2-(3-Ketobutyl)-2-Hydroxy-3-Keto-4-Dihydroxyethyl Butyrolactone <3, 6> Cyclohemiketal]
- CON-A 1.5 ug ([1]; 25 mg/kg (Table 9)): 3572
- CON-A 2.25 ug ([1]; 25 mg/kg (Table 9)): 5398
- PHA 10.5 ug ([1]; 25 mg/kg (Table 9)): 7935
- PHA 14 ug ([1]; 25 mg/kg (Table 9)): 10994
- RPMI CONTROL ([1]; 25 mg/kg): 255
- CON-A 1.5 ug ([1]; 50 mg/kg (Table 9)): 2539
- CON-A 2.25 ug ([1]; 50 mg/kg (Table 9)): 5802
- PHA 10.5 ug ([1]; 50 mg/kg (Table 9)): 4579
- PHA 14 ug ([1]; 50 mg/kg (Table 9)): 7295
- RPMI CONTROL ([1]; 50 mg/kg): 92
- CON-A 1.5 ug ([1]; 100 mg/kg (Table 9)): 1051
- CON-A 2.25 ug ([1]; 100 mg/kg (Table 9)): 3056
- PHA 10.5 ug ([1]; 100 mg/kg (Table 9)): 3540
- PHA 14 ug ([1]; 100 mg/kg (Table 9)): 4878
- RPMI CONTROL ([1]; 100 mg/kg): 33
- CON-A 1.5 ug ([1]; 200 mg/kg (Table 9)): 2571
- CON-A 2.25 ug ([1]; 200 mg/kg (Table 9)): 6891
- PHA 14 ug ([1]; 200 mg/kg (Table 9)): 6963
- RPMI CONTROL ([1]; 200 mg/kg): 55
- activation at 25 mg/kg ([1]; 25 mg/kg (Table 9), read-out: % INCR. (CON-A 1.5 ug)): 663%
- activation at 25 mg/kg ([1]; 25 mg/kg (Table 9), read-out: % INCR. (CON-A 2.25 ug)): 260%
- activation at 25 mg/kg ([1]; 25 mg/kg (Table 9), read-out: % INCR. (PHA 10.5 ug)): 356%
- activation at 25 mg/kg ([1]; 25 mg/kg (Table 9), read-out: % INCR. (PHA 14 ug)): 373%
- activation at 50 mg/kg ([1]; 50 mg/kg (Table 9), read-out: % INCR. (CON-A 1.5 ug)): 443%
- activation at 50 mg/kg ([1]; 50 mg/kg (Table 9), read-out: % INCR. (CON-A 2.25 ug)): 285%
- activation at 50 mg/kg ([1]; 50 mg/kg (Table 9), read-out: % INCR. (PHA 10.5 ug)): 163%
- activation at 50 mg/kg ([1]; 50 mg/kg (Table 9), read-out: % INCR. (PHA 14 ug)): 214%
- activation at 100 mg/kg ([1]; 100 mg/kg (Table 9), read-out: % INCR. (CON-A 1.5 ug)): 54%
- activation at 100 mg/kg ([1]; 100 mg/kg (Table 9), read-out: % INCR. (CON-A 2.25 ug)): 103%
- activation at 100 mg/kg ([1]; 100 mg/kg (Table 9), read-out: % INCR. (PHA 10.5 ug)): 103%
- activation at 100 mg/kg ([1]; 100 mg/kg (Table 9), read-out: % INCR. (PHA 14 ug)): 110%
- activation at 200 mg/kg ([1]; 200 mg/kg (Table 9), read-out: % INCR. (CON-A 1.5 ug)): 449%
- activation at 200 mg/kg ([1]; 200 mg/kg (Table 9), read-out: % INCR. (CON-A 2.25 ug)): 357%
- activation at 200 mg/kg ([1]; 200 mg/kg (Table 9), read-out: % INCR. (PHA 10.5 ug)): 171%
- activation at 200 mg/kg ([1]; 200 mg/kg (Table 9), read-out: % INCR. (PHA 14 ug)): 200%
- stimulation at all doses ([1]; all doses of PHA and Con-A, 25-200 mg/kg): stimulatory at all the doses of PHA and Con-A tested
- % INCREASE ([2]; 50 mg/kg (Table 11)): 70.2%
- PFC ([2]; 50 mg/kg (Table 11)): 36.0 PFC/1 MILLION CELLS
- % INCREASE ([2]; 100 mg/kg (Table 11)): 104.3%
- PFC ([2]; 100 mg/kg (Table 11)): 48.0 PFC/1 MILLION CELLS
- % INCREASE ([2]; 200 mg/kg (Table 11)): 106.4%
- PFC ([2]; 200 mg/kg (Table 11)): 48.5 PFC/1 MILLION CELLS
